Results reported in ChEMBL document CHEMBL1201862, “PubChem BioAssay data set” (2004).
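Method: 48-hour compound exposure of cells in 96-well plates, five concentrations, linear interpolation of endpoints. Abbreviation: GI50, concentration required for 50% inhibition of growth.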 Active and inactive are the calls of the source. Cut-off read from the data, not from the text of the source: active = GI50 up to about 1.1 µM and inactive = higher.

Key:
Assay in all cases: growth of human tumour cells (NCI), 48 h
[1] = system: OVCAR-3
[2] = system: NCI-H522
[3] = system: LXFL 529
[4] = system: A549
[5] = system: OVCAR-8
[6] = system: HCT-116
[7] = system: TK-10
[8] = system: SR
[9] = system: HOP-62
[10] = system: EKVX
[11] = system: MOLT-4
[12] = system: SN12C
[13] = system: U-251
[14] = system: RXF 393
[15] = system: OVCAR-4
[16] = system: NCI-H460
[17] = system: MDA-MB-435
[18] = system: DU-145
[19] = system: MDA-N

Measured: GI50

N#CC1(Cc2ccccc2Cl)c2ccccc2C=CN1C(=O)c1ccccc1 (stereo not drawn)
inactive: [1] > 100 µM | [2] 86.1 µM | [3] 43.1 µM | [4] 90.8 µM | [5] > 100 µM | [6] > 100 µM | [7] 46.8 µM | [8] 45.5 µM | [9] > 100 µM | [10] > 100 µM | [11] 28.4 µM | [12] 77.8 µM | [13] 48.9 µM | [14] 23.2 µM

FC(F)(F)C1(Cl)C(c2ccccc2)=C1c1ccccc1
inactive: [1] 17.2 µM | [3] 13.4 µM | [4] 15.1 µM | [5] 14.9 µM | [6] 13.9 µM | [15] 13.5 µM | [7] 20.9 µM | [8] 22.3 µM | [9] 18.3 µM | [16] 16 µM | [10] 16.1 µM | [11] 4.01 µM | [12] 15.6 µM | [13] 14.7 µM | [14] 13.3 µM

COC(=O)C1C(OCc2ccccc2)C2CCC1(OC)C=C2C (stereo not drawn)
inactive: [1] > 51.6 µM | [2] 29.4 µM | [3] 59 µM | [4] > 100 µM | [5] > 84.9 µM | [6] 61.4 µM | [15] > 100 µM | [7] > 74.3 µM | [8] 17.8 µM | [9] > 100 µM | [16] > 100 µM | [10] 46.9 µM | [11] 24.9 µM | [12] > 100 µM | [13] > 55.2 µM | [14] 54.3 µM

CC(C)OP(=O)(OC(C)C)/C(=N/Nc1ccc([N+](=O)[O-])cc1)NNC(=O)c1ccccc1
inactive: [1] 34.3 µM | [2] 42.4 µM | [3] 20 µM | [4] 55.6 µM | [5] 34.7 µM | [6] 34.2 µM | [15] 31.4 µM | [7] > 100 µM | [8] 22.3 µM | [9] > 100 µM | [16] 28.8 µM | [10] > 100 µM | [11] 17.2 µM | [12] > 100 µM | [13] 26.1 µM

Cc1nc(=O)[nH]c2[nH][nH]c(=O)c12
inactive: [1] > 100 µM | [2] > 100 µM | [3] > 100 µM | [4] > 100 µM | [5] > 100 µM | [6] > 100 µM | [15] > 100 µM | [7] > 100 µM | [8] > 100 µM | [9] > 100 µM | [16] > 100 µM | [10] > 100 µM | [11] > 100 µM | [12] > 100 µM | [13] > 100 µM | [14] > 100 µM

CCOC(=O)/C(=C/c1ccc(OC)cc1)N(CC)CC
inactive: [1] > 100 µM | [2] > 100 µM | [3] > 100 µM | [4] > 100 µM | [5] > 100 µM | [6] > 100 µM | [15] > 100 µM | [7] > 100 µM | [8] > 100 µM | [9] > 100 µM | [16] > 100 µM | [10] > 100 µM | [11] > 100 µM | [12] > 100 µM | [13] > 100 µM

O=C1NC2(CCCC2)C(=O)C12CCCC2
inactive: [1] > 100 µM | [2] > 100 µM | [3] > 100 µM | [4] > 100 µM | [5] > 100 µM | [6] > 100 µM | [15] > 100 µM | [7] > 100 µM | [8] > 100 µM | [9] > 100 µM | [16] > 100 µM | [10] > 100 µM | [11] > 100 µM | [12] > 100 µM | [13] > 100 µM | [14] > 100 µM

CC(=O)N(C)OC(=O)CC(=O)c1ccccc1
inactive: [1] > 100 µM | [2] > 100 µM | [3] > 100 µM | [4] > 100 µM | [5] > 100 µM | [6] > 100 µM | [15] > 100 µM | [7] > 100 µM | [8] > 100 µM | [9] > 100 µM | [16] > 100 µM | [11] > 100 µM | [12] > 100 µM | [13] > 100 µM | [14] > 100 µM

CSc1ccc(/C=C2\CNC/C(=C\c3ccc(SC)cc3)C2=O)cc1
inactive: [1] 36.8 µM | [2] 56.4 µM | [3] 21.2 µM | [4] > 237 µM | [5] 52.4 µM | [17] > 371 µM | [6] 144 µM | [7] 41.9 µM | [18] > 371 µM | [9] 84.5 µM | [16] > 119 µM | [10] > 170 µM | [12] > 139 µM | [13] 16.9 µM | [14] 25.9 µM | [19] > 100 µM

CC(=O)OC1(C#N)CC2OC1C1N=NN(C(=O)OC(C)(C)C)C21 (stereo not drawn)
inactive: [1] 43.1 µM | [2] > 100 µM | [3] 32.3 µM | [4] > 10 µM | [5] 30.3 µM | [6] 10.9 µM | [15] 28.4 µM | [7] > 100 µM | [8] 15 µM | [9] > 100 µM | [16] > 100 µM | [10] 55.1 µM | [11] 34 µM | [12] 39.7 µM | [13] > 100 µM | [14] > 31.6 µM

N[C@H](C(=O)O)[C@H](Cl)CC(=O)O
inactive: [1] > 100 µM | [2] > 100 µM | [3] > 100 µM | [4] > 100 µM | [5] > 100 µM | [6] > 100 µM | [15] > 100 µM | [7] > 100 µM | [9] > 100 µM | [16] > 100 µM | [10] > 100 µM | [11] > 100 µM | [12] > 100 µM | [13] > 100 µM | [14] > 100 µM

COC(=O)N/N=C(\C)C(CN(C)C)C(c1ccccc1)c1c(O)c2ccccc2oc1=O (stereo not drawn)
inactive: [2] 14.2 µM | [3] > 100 µM | [4] > 100 µM | [5] > 100 µM | [6] > 100 µM | [15] > 100 µM | [7] > 100 µM | [8] > 100 µM | [9] > 100 µM | [10] > 100 µM | [11] > 100 µM | [12] > 100 µM | [13] > 100 µM | [14] > 100 µM

CN(C(=O)/C=C/c1ccccc1)C1C2CN3CCC(O2)C13 (stereo not drawn)
inactive: [1] > 100 µM | [2] > 100 µM | [3] > 100 µM | [4] > 100 µM | [5] > 100 µM | [6] > 100 µM | [15] > 100 µM | [7] > 100 µM | [9] > 100 µM | [16] > 100 µM | [10] > 100 µM | [11] > 100 µM | [12] > 100 µM | [13] > 100 µM | [14] > 100 µM
